Assay results as given in PubChem BioAssay AID1919015 (Molecular Pharmacology Branch, DTP, NCI, 2023).

Tested on: OVCAR-5 complex spheroids with HUVEC/MSC, viability, % test/control
Assay: Anticancer human tumor OVCAR-5 cell line growth inhibition [AhR];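 also: spheroids exposed to compounds for 7 days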;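 as to viability, T/C: 100% = DMSO vehicle control wells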
Conditions: for IC50: curve of first compound; for viability, T/C: stronger effect = lower value; active = viability on the fitted dose curve at most 10% of control; inactive = the rest
Method in brief: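 Agents were dosed in half-log steps down from roughly clinical Cmax, or from 10 microM where Cmax was unknown, alone and with AhR antagonists. Read-out: percent test/control growth of tumor spheroids containing HUVEC and MSC stromal cells.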

[1] = second compound 0.1 µM, first compound 0.0316 µM
[2] = second compound 0.1 µM, first compound 0.1 µM
[3] = second compound 0.1 µM, first compound 0.316 µM
[4] = second compound 0.1 µM, first compound 1 µM
[5] = second compound 0.1 µM, first compound 3.16 µM
[6] = second compound 0.1 µM, first compound 10 µM
[7] = second compound 0.316 µM, first compound 0.0316 µM
[8] = second compound 0.316 µM, first compound 0.1 µM
[9] = second compound 0.316 µM, first compound 0.316 µM
[10] = second compound 0.316 µM, first compound 1 µM
[11] = second compound 0.316 µM, first compound 3.16 µM
[12] = second compound 0.316 µM, first compound 10 µM
[13] = second compound 1 µM, first compound 0.0316 µM
[14] = second compound 1 µM, first compound 0.1 µM
[15] = second compound 1 µM, first compound 0.316 µM
[16] = second compound 1 µM, first compound 1 µM
[17] = second compound 1 µM, first compound 3.16 µM
[18] = second compound 1 µM, first compound 10 µM
[19] = second compound 3.16 µM, first compound 0.0316 µM
[20] = second compound 3.16 µM, first compound 0.1 µM
[21] = second compound 3.16 µM, first compound 0.316 µM
[22] = second compound 3.16 µM, first compound 1 µM
[23] = second compound 3.16 µM, first compound 3.16 µM
[24] = second compound 3.16 µM, first compound 10 µM
[25] = second compound 10 µM, first compound 0.0316 µM
[26] = second compound 10 µM, first compound 0.1 µM
[27] = second compound 10 µM, first compound 0.316 µM
[28] = second compound 10 µM, first compound 1 µM
[29] = second compound 10 µM, first compound 3.16 µM
[30] = second compound 10 µM, first compound 10 µM

CC(C)c1c(-c2ccccc2)nc2c(C#N)c[nH]n2c1=O + CC(CO)NC(=O)c1cc(-c2ccc(Cl)cc2)nn(-c2cnn(C)c2)c1=O
> 10000 nM: IC50 (second compound 0.1 µM) | IC50 (second compound 0.316 µM) | IC50 (second compound 1 µM) | IC50 (second compound 3.16 µM) | IC50 (second compound 10 µM)
inactive: viability, T/C [1] 117% | viability, T/C [2] 111% | viability, T/C [3] 112% | viability, T/C [4] 115% | viability, T/C [5] 114% | viability, T/C [6] 116% | viability, T/C [7] 107% | viability, T/C [8] 117% | viability, T/C [9] 114% | viability, T/C [10] 115% | viability, T/C [11] 116% | viability, T/C [12] 119% | viability, T/C [13] 114% | viability, T/C [14] 121% | viability, T/C [15] 119% | viability, T/C [16] 116% | viability, T/C [17] 117% | viability, T/C [18] 121% | viability, T/C [19] 99% | viability, T/C [20] 108% | viability, T/C [21] 107% | viability, T/C [22] 105% | viability, T/C [23] 111% | viability, T/C [24] 111% | viability, T/C [25] 101% | viability, T/C [26] 105% | viability, T/C [27] 100% | viability, T/C [28] 101% | viability, T/C [29] 103% | viability, T/C [30] 104%

CC1COCCN1c1cc(-c2ccnn2C)c2ccnc(-c3ccn[nH]3)c2n1 (stereo not given) + CC(CO)NC(=O)c1cc(-c2ccc(Cl)cc2)nn(-c2cnn(C)c2)c1=O
297 nM: IC50 (second compound 1 µM)
281 nM: IC50 (second compound 0.1 µM)
276 nM: IC50 (second compound 0.316 µM)
inactive: viability, T/C (second compound 0.1 µM, first compound 0.00316 µM) 111% | viability, T/C (second compound 0.1 µM, first compound 0.01 µM) 111% | viability, T/C [1] 110% | viability, T/C [2] 87% | viability, T/C [3] 46.2% | viability, T/C [4] 30.8% | viability, T/C (second compound 0.316 µM, first compound 0.00316 µM) 111% | viability, T/C (second compound 0.316 µM, first compound 0.01 µM) 113% | viability, T/C [7] 109% | viability, T/C [8] 87% | viability, T/C [9] 45.1% | viability, T/C [10] 32.1% | viability, T/C (second compound 1 µM, first compound 0.00316 µM) 119% | viability, T/C (second compound 1 µM, first compound 0.01 µM) 121% | viability, T/C [13] 118% | viability, T/C [14] 89% | viability, T/C [15] 48.6% | viability, T/C [16] 35.4% | viability, T/C (second compound 3.16 µM, first compound 0.00316 µM) 106% | viability, T/C (second compound 3.16 µM, first compound 0.01 µM) 115% | viability, T/C [19] 102% | viability, T/C [20] 67.6% | viability, T/C [21] 40.3% | viability, T/C [22] 35% | viability, T/C (second compound 10 µM, first compound 0.00316 µM) 99.7% | viability, T/C (second compound 10 µM, first compound 0.01 µM) 103% | viability, T/C [25] 83.9% | viability, T/C [26] 49% | viability, T/C [27] 35.5% | viability, T/C [28] 33.5%
95.8 nM: IC50 (second compound 10 µM)
207 nM: IC50 (second compound 3.16 µM)

COc1ccc([C@@H](O)c2cc(-c3ncnc4cc(N5CCOCC5)ccc34)c(F)cc2Cl)nn1 + CC(CO)NC(=O)c1cc(-c2ccc(Cl)cc2)nn(-c2cnn(C)c2)c1=O
2570 nM: IC50 (second compound 0.1 µM)
inactive: viability, T/C [1] 101% | viability, T/C [2] 107% | viability, T/C [3] 97.6% | viability, T/C [4] 75% | viability, T/C [5] 45.3% | viability, T/C [6] 23.8% | viability, T/C [7] 105% | viability, T/C [8] 105% | viability, T/C [9] 102% | viability, T/C [10] 80.4% | viability, T/C [11] 48.6% | viability, T/C [12] 24.4% | viability, T/C [13] 114% | viability, T/C [14] 115% | viability, T/C [15] 107% | viability, T/C [16] 87.4% | viability, T/C [17] 52.9% | viability, T/C [18] 28.6% | viability, T/C [19] 99.2% | viability, T/C [20] 102% | viability, T/C [21] 87.3% | viability, T/C [22] 77.5% | viability, T/C [23] 50.5% | viability, T/C [24] 27.7% | viability, T/C [25] 98% | viability, T/C [26] 96.6% | viability, T/C [27] 85.4% | viability, T/C [28] 69% | viability, T/C [29] 43.3% | viability, T/C [30] 26.2%
3360 nM: IC50 (second compound 3.16 µM)
2350 nM: IC50 (second compound 10 µM)
3610 nM: IC50 (second compound 1 µM)
2940 nM: IC50 (second compound 0.316 µM)
